This experiment has as its target T1, human CTPS1 (Homo sapiens, UniProt P17812).
T1 construct: FLAG (with GG linker); His8 (with GG linker); purchased Proteros biostructures GmbH
T1 sequence (P17812 1-591): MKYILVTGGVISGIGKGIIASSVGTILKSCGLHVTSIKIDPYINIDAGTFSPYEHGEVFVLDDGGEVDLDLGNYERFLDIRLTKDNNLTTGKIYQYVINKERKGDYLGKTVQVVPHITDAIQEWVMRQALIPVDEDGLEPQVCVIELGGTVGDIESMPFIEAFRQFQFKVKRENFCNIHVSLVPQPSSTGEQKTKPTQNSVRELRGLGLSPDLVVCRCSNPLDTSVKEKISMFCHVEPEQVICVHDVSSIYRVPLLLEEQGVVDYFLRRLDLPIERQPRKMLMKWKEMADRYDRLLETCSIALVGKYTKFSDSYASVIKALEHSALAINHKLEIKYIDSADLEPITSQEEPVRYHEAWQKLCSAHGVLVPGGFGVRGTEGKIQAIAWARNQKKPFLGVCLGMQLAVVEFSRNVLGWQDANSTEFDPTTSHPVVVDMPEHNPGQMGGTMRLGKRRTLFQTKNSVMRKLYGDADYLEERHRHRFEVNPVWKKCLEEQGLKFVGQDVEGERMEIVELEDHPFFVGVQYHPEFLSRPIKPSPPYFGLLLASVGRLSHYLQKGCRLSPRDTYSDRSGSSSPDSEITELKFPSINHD
Kind of experiment: RapidFire/MS-based enzyme selectivity assay (human CTPS1 versus CTPS2), CTPS1 isoform. The class given is biochemical. The protocol:
Human CTPS1 Versus CTPS2 Selectivity Assessment by RapidFire/MS Analysis.
The enzyme inhibitory activities against each target isoform of interest may be determined for the compounds of the invention using an optimised RapidFire high-throughput mass spectrometry (RF/MS) assay format. RF/MS assays for both human CTPS1 and CTPS2 may be performed in assay buffer consisting of 50 mM HEPES (Merck), 20 mM MgCl2, 5 mM KCl, 1 mM DTT, 0.01% Tween-20, pH to 8.0 accordingly. Human full-length active C-terminal FLAG-His-tag CTPS1 (UniProtKB—P17812, CTPS1[1-591]-[…] (CTPS1[1-591]-SEQ ID NO: 1)) may be obtained from Proteros biostructures GmbH. Human full length active C-terminal FLAG-His-Avi tagged CTPS2 (UniProtKB—Q9NRF8, CTPS2 [1-586]-[…] (CTPS2 [1-586]—SEQ ID NO: 2)) may be obtained from Harker Bio.
Human CTPS (1 or 2) protein may be prepared in 1× assay buffer to the final working protein concentration required for the reaction. A 2 uL volume per well of 2×CTPS (1 or 2) protein may be mixed with 40 nL of compound using acoustic (ECHO) delivery and incubated for 10 minutes at 25° C. Each isoform enzymatic reaction may be subsequently initiated by addition of 2 uL per well of a 2× substrate mix in assay buffer. For hCTPS1: ATP (0.3 mM), UTP (0.2 mM), GTP (0.07 mM) and L-glutamine (0.1 mM). For hCTPS2: ATP (0.1 mM), UTP (0.04 mM), GTP (0.03 mM) and L-glutamine (0.1 mM). Each mixture may be incubated for an appropriate amount of time per isoform within the determined linear phase of the reaction at 25° C. A 80 uL volume of stop solution (1% formic acid with 0.5 uM ^13C9-^15N3-CTP in H2O) may be added and the plate immediately heat-sealed and centrifuged for 10 minutes at 4,000 rpm. Following centrifugation, plates may be loaded onto the Agilent RapidFire microfluidic solid phase extraction system coupled to an API4000 triple quadrupole mass spectrometer (RF/MS) for analysis.
In all cases, the enzyme converts UTP to CTP. Highly specific and sensitive multiple reaction monitoring (MRM) MS methods may be optimised for the detection of the enzymatic reaction product, CTP, and the stable isotope labelled product standard ^13C9-^15N3-CTP. Readout for data analysis may be calculated as the ratio between the peak area of the product CTP and the internal standard ^13C9-^15N3-CTP. For data reporting, the following equation may be used:
(R=ratio/readout, P=product signal area, IS=internal standard signal area)
For each screening plate, the means of the negative (DMSO) and positive control values were used for the calculation of the respective assay window (S/B) and Z′ values. The median of the respective control values was used for calculation of percent inhibition according to the following equation:
(I=Inhibition, Rneq=median of negative control readout values, Rpos=median of positive control readout values, Rsample=sample readout value)
Percentage inhibition was then plotted against compound concentration, and the 50% inhibitory concentration (IC50) was determined from the resultant concentration-response curve.
Fold selectivity between CTPS1 and CTPS2 was subsequently calculated according to the following equation: […]

Where [1] appears, read: RapidFire/MS IC50 values of CTPS1 and CTPS2, Table 15.
The mark [2] stands for this setting: Table 16, human CTPS1 over human CTPS2, RapidFire/MS IC50 values.

`CCOc1cncc(-c2ccc(NC(=O)C3(c4ccnc(NS(=O)(=O)C5CC5)n4)CCCC3)nc2)n1` [P136, 1-(2-(cyclopropanesulfonamido)pyrimidin-4-yl)-N-(5-(6-ethoxypyrazin-2-yl)pyridin-2-yl)cyclopentane-1-carboxamide]: the “Selectivity (fold selectivity between CTPS1 and CTPS2)” value under setting [1] is “+++ (>60 fold (+++))”.
On to `CCOc1cncc(-c2ccc(NC(=O)C3(c4cncc(NS(=O)(=O)C5CC5)n4)CCOCC3)nc2)n1` [P197, 4-(6-(cyclopropanesulfonamido)pyrazin-2-yl)-N-(5-(6-ethoxypyrazin-2-yl)pyridin-2-yl)tetrahydro-2H-pyran-4-carboxmaide], for which the “Selectivity (fold selectivity between CTPS1 and CTPS2)” value under setting [1] was “+++ (>60 fold (+++))”.
As to `CCc1cncc(-c2ccc(C(=O)NC(C)(C)c3csc(NS(=O)(=O)C4CC4)n3)c(F)c2)n1` [R41, N-(2-(2-(cyclopropanesulfon-amido)thiazol-4-yl)propan-2-yl)-4-(6-ethylpyrazin-2-yl)-2-fluorobenzamide], under setting [2], the “Selectivity (fold selectivity between CTPS1 and CTPS2)” value was “++ (>30-60 fold (++))”.
For the molecule `CC(C)(NC(=O)c1ccc(-c2cncc(C(F)(F)F)n2)cc1)c1nc(NS(=O)(=O)C2CC2)sc1Cl` [R79, N-(2-(5-chloro-2-(cycloprop-anesulfonamido)thiazol-4-yl)propan-2-yl)-4-(6-(trifluoromethyl)pyrazin-2-yl)benzamide], the “Selectivity (fold selectivity between CTPS1 and CTPS2)” value under setting [2] was “+ (2-30 fold (+))”.
`CCOc1cncc(-c2ccc(NC(=O)C(C)(C)c3ccnc(NS(=O)(=O)C4CC4)n3)cc2)n1` [P65, 2-(2-(cyclopropanesulfonamido)pyrimidin-4-yl)-N-(4-(6-ethoxypyrazin-2-yl)phenyl)-2-methylpropanamide]: the “Selectivity (fold selectivity between CTPS1 and CTPS2)” value under setting [1] was “++ (>30-60 fold (++))”.
`CCOc1cncc(-c2ccc(NC(=O)C(CC)c3cncc(NS(=O)(=O)C4CC4)n3)cc2)n1` (centres unmarked) [P202, 2-(6-(cyclopropanesulfonamido)pyrazin-2-yl)-N-(4-(6-ethoxypyrazin-2-yl)phenyl)butanamide]: the “Selectivity (fold selectivity between CTPS1 and CTPS2)” value under setting [1] is recorded as “+++ (>60 fold (+++))”.
Still for that read-out and setting: under `CCOc1cncc(-c2ccc(NC(=O)C(CC)c3ccnc(NS(=O)(=O)C4CC4)n3)c(F)c2)n1` (centres unmarked) [P96, 2-(2-(cyclopropanesulfonamido)pyrimidin-4-yl)-N-(4-(6-ethoxypyrazin-2-yl)-2-fluorophenyl)butanamide] stands “+ (2-30 fold (+))”.
Take `CCOc1cncc(-c2ccc(C(=O)NC(CCOC)c3csc(NS(=O)(=O)C4CC4)n3)c(F)c2)n1` (single isomer, unassigned) [R92, N-(1-(2-(cyclopropanesulfon-amido)thiazol-4-yl)-3-methoxypropyl)-4-(6-ethoxypyrazin-2-yl)-2-fluorobenzamide]: under setting [2], the “Selectivity (fold selectivity between CTPS1 and CTPS2)” value was “+++ (>60 fold (+++))”.
For the molecule `CCOc1cncc(-c2ccc(C(=O)NC(CCOC)c3csc(NS(=O)(=O)C4CC4)n3)c(F)c2)n1` (single isomer, unassigned) [R93, N-(1-(2-(cyclopropanesulfon-amido)thiazol-4-yl)-3-methoxypropyl)-4-(6-ethoxypyrazin-2-yl)-2-fluorobenzamide], the “Selectivity (fold selectivity between CTPS1 and CTPS2)” value under setting [2] is on record as “+++ (>60 fold (+++))”.
Regarding `CCC(C(=O)Nc1ccc(-c2cncc(OCC(F)(F)F)n2)cc1F)c1ccnc(NS(=O)(=O)C2CC2)n1` (centres unmarked) [P98, 2-(2-(cyclopropanesulfonamido)pyrimidin-4-yl)-N-(2-fluoro-4-(6-(2,2,2-trifluoroethoxy)pyrazin-2-yl)phenyl)butanamide], the “Selectivity (fold selectivity between CTPS1 and CTPS2)” value under setting [1] is “+++ (>60 fold (+++))”.
With `CCOc1cncc(-c2ccc(NC(=O)C(C)(C)c3cncc(NS(=O)(=O)C4CC4)n3)nc2)n1` [P195, 2-(6-(cyclopropanesulfonamido)pyrazin-2-yl)-N-(5-(6-ethoxypyrazin-2-yl)pyridin-2-yl)-2-methylpropanamide], under setting [1], the “Selectivity (fold selectivity between CTPS1 and CTPS2)” value is given as “+++ (>60 fold (+++))”.
For `CCC(C(=O)Nc1ncc(-c2cncc(OC)n2)cc1F)c1ccnc(NS(=O)(=O)C2CC2)n1` (centres unmarked) [P158, 2-(2-(cyclopropanesulfonamido)pyrimidin-4-yl)-N-(3-fluoro-5-(6-methoxypyrazin-2-yl)pyridin-2-yl)butanamide], under setting [1], the “Selectivity (fold selectivity between CTPS1 and CTPS2)” value is reported as “+ (2-30 fold (+))”.
In the case of `CC(C)c1cncc(-c2ccc(NC(=O)C(C)(C)c3ccnc(NS(=O)(=O)C4CC4)n3)cc2)n1` [P132, 2-(2-(cyclopropanesulfonamido)pyrimidin-4-yl)-N-(4-(6-isopropylpyrazin-2-yl)phenyl)-2-methylpropanamide], under setting [1], the “Selectivity (fold selectivity between CTPS1 and CTPS2)” value is listed as “++ (>30-60 fold (++))”.
Take `CCC(NC(=O)c1ccc(-c2cncc(OC(C)C)n2)cc1F)c1csc(NS(=O)(=O)C2CC2)n1` (racemic) [R64, N-(1-(2-(cyclopropanesulfonamido)thiazol-4-yl)propyl)-2-fluoro-4-(6-isopropoxypyrazin-2-yl)benzamide]: the “Selectivity (fold selectivity between CTPS1 and CTPS2)” value under setting [2] is listed as “++ (>30-60 fold (++))”.
Turning to `CCOc1cncc(-c2ccc(NC(=O)C(F)(CC)c3cncc(NS(=O)(=O)C4CC4)n3)nc2)n1` (single isomer, unassigned) [P206, 2-(6-(2-cyclopropanesulfonamido)pyrazin-2-yl)-N-(5-(6-ethoxypyrazin-2-yl)pyridin-2-yl)-2-fluorobutanamide], the “Selectivity (fold selectivity between CTPS1 and CTPS2)” value under setting [1] was “+++ (>60 fold (+++))”.
As for `COc1cncc(-c2ccc(C(=O)NC(C)(C)c3csc(NS(=O)(=O)C4CC4)n3)cc2)n1` [R54, N-(2-(2-(cyclopropanesulfon-amido)thiazol-4-yl)propan-2-yl)-4-(6-methoxypyrazin-2-yl)benzamide], the “Selectivity (fold selectivity between CTPS1 and CTPS2)” value under setting [2] is “+ (2-30 fold (+))”.
Take `CCOc1cncc(-c2ccc(C(=O)NCc3csc(NS(=O)(=O)C4CC4)n3)c(F)c2)n1` [R11, N-((2-(cyclopropanesulfon-amido)thiazol-4-yl)methyl)-4-(6-ethoxypyrazin-2-yl)-2-fluorobenzamide]: under setting [2], the “Selectivity (fold selectivity between CTPS1 and CTPS2)” value is “++ (>30-60 fold (++))”.
`CCOc1cncc(-c2ccc(NC(=O)C(C)(CCOC)c3cncc(NS(=O)(=O)C4CC4)n3)nc2)n1` (centres unmarked) [P198, 2-(6-(cyclopropanesulfonamido)pyrazin-2-yl)-N-(5-(6-ethoxypyrazin-2-yl)pyridin-2-yl)-4-methoxy-2-methylbutanamide]: the “Selectivity (fold selectivity between CTPS1 and CTPS2)” value under setting [1] is recorded as “+++ (>60 fold (+++))”.
For `CCOc1cncc(-c2ccc(NC(=O)C(F)(CC)c3cncc(NS(=O)(=O)C4CC4)n3)nc2)n1` (single isomer, unassigned) [P207, 2-(6-(cyclopropanesulfonamido)pyrazin-2-yl)-N-(5-(6-ethoxypyrazin-2-yl)pyridin-2-yl)-2-fluorobutanamide], the “Selectivity (fold selectivity between CTPS1 and CTPS2)” value under setting [1] is listed as “+ (2-30 fold (+))”.
For `CCOc1cncc(-c2ccc(C(=O)NC(C)(C)c3csc(NS(=O)(=O)C4CC4)n3)cc2)n1` [R55, N-(2-(2-(cyclopropanesulfon-amido)thiazol-4-yl)propan-2-yl)-4-(6-ethoxypyrazin-2-yl)benzamide], under setting [2], the “Selectivity (fold selectivity between CTPS1 and CTPS2)” value is “+++ (>60 fold (+++))”.
